The values below come from patent publication US7612018B2, “Insecticides” (Syngenta Crop Protection, Inc., priority 2004, dated 2009).

For data set [1], the system named is Spodoptera littoralis. Kind of data set: Systemic Insecticide Test for Spodoptera littoralis (Example B9). It is filed as in vivo. The note with it: for Death rate (%) after 4 days: 1st instar larvae on cut leaves, one replicate. How it is done: Four day old maize seedlings (Zea mais, variety Stoneville) are placed individual in vials containing 24 ml water into which the chemical is diluted at the prescribed concentrations (12.5, 3 and 0.8 ppm). Seedlings are allowed to grow for six days. Subsequently leaves are cut and placed in a Petri dish (3.5 cm diameter), inoculated with twelve to fifteen 1st instar S. littoralis larvae and incubated for four days in a growth chamber (25° C., 50% r.h., 18:6 L:D photo period). Number of alive insects are counted and percentage of dead calculated. Tests were conducted with one replicate.

For data set [2], the system named is Spodoptera littoralis. Kind of data set: Activity against Spodoptera littoralis (Example B8). The data set is classed as in vivo. The note with it: 72 h, young soya plants, spray 400 ppm, 1st instar caterpillars, 3 days, read-out: percentage reduction in the population and in the feeding damage (% activity). The protocol:
Young soya plants are sprayed with an aqueous emulsion spray mixture comprising 400 ppm of active ingredient and, after the spray coating has dried on, populated with 10 caterpillars (1st instar) of Spodoptera littoralis and introduced into a plastic container. 3 days later, the percentage reduction in the population and in the feeding damage (% activity) are determined by comparing the number of dead caterpillars and the feeding damage between the treated and untreated plants. In this test, compounds listed in the Tables above show good activity. In particular, the compounds T.64.1.136, T1.1.136, T64.1.1 and T1.1.1 have an activity of over 80%.

In another data set the test system is Plutella xylostella. The data set is described as follows: Activity against Plutella xylostella (Example B7). It is filed as in vivo. The note with it: 72 h, young cabbage plants, spray 400 ppm, 3rd instar caterpillars, 3 days, read-out: percentage reduction in the population and in the feeding damage (% activity). The protocol: Young cabbage plants are sprayed with an aqueous emulsion spray mixture comprising 400 ppm of active ingredient and, after the spray coating has dried on, populated with 10 caterpillars (3rd instar) of Plutella xylostella and introduced into a plastic container. 3 days later, the percentage reduction in the population and in the feeding damage (% activity) are determined by comparing the number of dead caterpillars and the feeding damage between the treated and untreated plants.

The subject of a further data set is Heliothis virescens. Kind of data set: Activity against Heliothis virescens (foliar application) (Example B3). The data set is classed as in vivo. The following applies: 144 h, young soya plants, spray 400 ppm, 1st instar caterpillars, 6 days, read-out: percentage reduction in the population and in the feeding damage (% activity). How it is done: Young soya plants are sprayed with an aqueous emulsion spray mixture comprising 400 ppm of active ingredient and, after the spray coating has dried on, populated with 10 caterpillars (1st instar) of Heliothis virescens and introduced into a plastic container. 6 days later, the percentage reduction in the population and in the feeding damage (% activity) are determined by comparing the number of dead caterpillars and the feeding damage between the treated and untreated plants.

The test system of another data set is Diabrotica balteata. The data set is described as follows: Activity against Diabrotica balteata (Example B2). The data set is classed as in vivo. The following applies: 144 h, maize seedlings, spray 400 ppm, 2nd instar larvae, 6 days, read-out: percentage reduction in the population (% activity). How it is done:
Maize seedlings are sprayed with an aqueous emulsion spray mixture comprising 400 ppm of active ingredient and, after the spray coating has dried on, populated with 10 larvae (2nd instar) of Diabrotica balteata and introduced into a plastic container. 6 days later, the percentage reduction in the population (% activity) is determined by comparing the number of dead larvae between the treated and untreated plants.

The mark [3] stands for this setting: 0.8 ppm in water of maize seedlings.
Where [4] appears, read: 3 ppm in water of maize seedlings.
The mark [5] stands for this setting: 12.5 ppm in water of maize seedlings.

What is called melting point is the temperature of the solid-liquid transition.

As for `Cc1cc(C(F)(C(F)(F)F)C(F)(F)F)ccc1NC(=O)c1cccc(C)c1C(=O)NC(C)(C)CS(C)(=O)=O` [Comp. 124, reference compound], the “Death rate (%) after 4 days” value is given as 0% with Spodoptera littoralis [1] (setting [3]), 20% in the data set with Spodoptera littoralis [1] (setting [4]) and 90% with Spodoptera littoralis [1] (setting [5]).
As to `Cc1cc(C(F)(C(F)(F)F)C(F)(F)F)ccc1NC(=O)c1cccc(Cl)c1C(=O)NC(C)(C)C/S(C)=N/C(=O)OC(C)(C)C` (centres unmarked) [Compound T64.1.136], the inhibition at 400 ppm in the data set on Spodoptera littoralis [2], with Plutella xylostella, in the data set on Heliothis virescens and in the data set with Diabrotica balteata was greater than 80% throughout.
Turning to `Cc1cc(C(F)(C(F)(F)F)C(F)(F)F)ccc1NC(=O)c1cccc(I)c1C(=O)NC(C)(C)C/S(C)=N/C(=O)OC(C)(C)C` (centres unmarked) [Compound T64.1.1], the melting point is 125 to 126 °C. For the same compound, in the data set with Spodoptera littoralis [2], the inhibition at 400 ppm is greater than 80%. Further, the inhibition at 400 ppm in the data set on Plutella xylostella is greater than 80%. Also, the inhibition at 400 ppm in the data set on Heliothis virescens was greater than 80%. Besides, in the data set with Diabrotica balteata, the inhibition at 400 ppm is greater than 80%.
On to `Cc1cc(C(F)(C(F)(F)F)C(F)(F)F)ccc1NC(=O)c1cccc(Cl)c1C(=O)NC(C)(C)CS(C)(=N)=O` (centres unmarked) [Compound T1.1.136], for which the melting point was in the range of 87 to 88 °C. Also, the inhibition at 400 ppm in the data set on Spodoptera littoralis [2] was greater than 80%. The inhibition at 400 ppm in the data set on Plutella xylostella is greater than 80%. In addition, the inhibition at 400 ppm in the data set with Heliothis virescens was greater than 80%.
Regarding `Cc1cc(C(F)(C(F)(F)F)C(F)(F)F)ccc1NC(=O)c1cccc(I)c1C(=O)NC(C)(C)CS(C)(=N)=O` (centres unmarked) [Compound T1.1.1], the inhibition at 400 ppm with Spodoptera littoralis [2], in the data set on Plutella xylostella, in the data set on Heliothis virescens and in the data set with Diabrotica balteata was greater than 80% in each case. Further, the “Death rate (%) after 4 days” value in the data set with Spodoptera littoralis [1] (setting [3]), in the data set on Spodoptera littoralis [1] (setting [4]) and with Spodoptera littoralis [1] (setting [5]) was 100% in each case. In the data set with Spodoptera littoralis [1] (comparison with Comp. 124, Table B9), the “insecticidal action on Spodoptera littoralis compared with the compound from the state of the art” value was “substantially better insecticidal action”.
In the case of `Cc1cc(C(F)(C(F)(F)F)C(F)(F)F)ccc1NC(=O)c1cccc(Cl)c1C(=O)NC(C)(C)CS(C)(=O)=NC(=O)OC(C)(C)C` (centres unmarked) [Compound T55.1.136], the melting point lay in the range of 113 to 114 °C. Further, the inhibition at 400 ppm in the data set with Plutella xylostella is greater than 80%. Also, the inhibition at 400 ppm in the data set with Heliothis virescens was greater than 80%.
Regarding `Cc1cc(C(F)(C(F)(F)F)C(F)(F)F)ccc1NC(=O)c1cccc(I)c1C(=O)NC(C)(C)CS(C)(=O)=NC(=O)OC(C)(C)C` (centres unmarked) [Compound T55.1.1], the inhibition at 400 ppm in the data set on Plutella xylostella and with Heliothis virescens was greater than 80% each time.
